Data taken from ChEMBL document CHEMBL2010698 (J Med Chem, 2012).

Key:
Beta-secretase 1 [1] = target: T1, Beta-secretase 1 (Homo sapiens, UniProt P56817); experiment: Inhibition of human recombinant BACE-1 using M-2420 as substrate preincubated for 1 hr prior substrate addition measured after 15 mins by spectrofluorimetry
Cholinesterase [2] = target: T2, Cholinesterase (Homo sapiens, UniProt P06276)
Description: Inhibition of human serum BChE using butyrylthiocholine iodide as substrate preincubated for 20 mins prior substrate addition measured after 5 mins by spectrophotometry

Acetylcholinesterase [3] = target: T3, Acetylcholinesterase (Homo sapiens, UniProt P22303)
Description: Competitive inhibition of human recombinant AChE by Lineweaver-Burk plot analysis

Acetylcholinesterase [4] = target: T3, Acetylcholinesterase; remark: listed apart in the source
Description: Inhibition of human recombinant AChE using acetylthiocholine iodide as substrate preincubated for 20 mins prior substrate addition measured after 5 mins by spectrophotometry

[5] = Inhibition of self-induced Abeta1-42 aggregation after 24 hrs by thioflavin T fluorescence method
Beta-secretase 1 [6] = target: T1, Beta-secretase 1; settings: 5 uM
Description: Inhibition of human recombinant BACE-1 using panvera peptide as substrate at 5 uM preincubated for 60 mins prior substrate addition measured after 60 mins by spectrofluorimetry

Cholinesterase [7] = target: T2, Cholinesterase; experiment: Ratio of (+/-)-huprine Y IC50 to compound IC50 for human serum BChE
in vitro = settings: pig, PAMPA
Description: Permeability across porcine brain lipid layer after 240 mins by PAMPA-BBB assay

Mus musculus = species: Mus musculus; experiment: animal or person; settings: OF1, Brain, ip, 20 min, read-out: INH
Acetylcholinesterase [8] = target: T4, Acetylcholinesterase (Bos taurus, UniProt P23795); experiment: Inhibition of bovine AChE-induced coumarin-tagged PrP106-126 aggregation after 48 hrs by fluorescence microscopy
T4 sequence (P23795 whole entry): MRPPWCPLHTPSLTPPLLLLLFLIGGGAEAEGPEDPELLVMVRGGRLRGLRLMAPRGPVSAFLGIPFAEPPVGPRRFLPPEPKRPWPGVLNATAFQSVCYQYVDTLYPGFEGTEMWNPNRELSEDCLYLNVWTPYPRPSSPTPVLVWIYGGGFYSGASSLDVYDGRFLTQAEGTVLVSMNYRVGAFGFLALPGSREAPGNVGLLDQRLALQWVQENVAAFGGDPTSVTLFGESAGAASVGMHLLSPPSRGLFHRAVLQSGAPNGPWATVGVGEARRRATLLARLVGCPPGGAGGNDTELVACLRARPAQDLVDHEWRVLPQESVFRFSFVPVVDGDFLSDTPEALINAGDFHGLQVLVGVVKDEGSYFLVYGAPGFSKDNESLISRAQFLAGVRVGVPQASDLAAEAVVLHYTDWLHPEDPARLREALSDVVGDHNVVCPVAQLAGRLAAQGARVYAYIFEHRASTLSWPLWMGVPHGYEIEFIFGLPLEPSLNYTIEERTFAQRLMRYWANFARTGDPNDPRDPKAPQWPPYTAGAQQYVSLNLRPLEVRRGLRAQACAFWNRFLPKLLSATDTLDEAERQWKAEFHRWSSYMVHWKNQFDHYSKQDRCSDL

Acetylcholinesterase [9] = target: T3, Acetylcholinesterase; experiment: Inhibition of human recombinant AChE-induced Abeta1-40 aggregation by thioflavin T fluorescence method

T2 sequence (P06276 whole entry): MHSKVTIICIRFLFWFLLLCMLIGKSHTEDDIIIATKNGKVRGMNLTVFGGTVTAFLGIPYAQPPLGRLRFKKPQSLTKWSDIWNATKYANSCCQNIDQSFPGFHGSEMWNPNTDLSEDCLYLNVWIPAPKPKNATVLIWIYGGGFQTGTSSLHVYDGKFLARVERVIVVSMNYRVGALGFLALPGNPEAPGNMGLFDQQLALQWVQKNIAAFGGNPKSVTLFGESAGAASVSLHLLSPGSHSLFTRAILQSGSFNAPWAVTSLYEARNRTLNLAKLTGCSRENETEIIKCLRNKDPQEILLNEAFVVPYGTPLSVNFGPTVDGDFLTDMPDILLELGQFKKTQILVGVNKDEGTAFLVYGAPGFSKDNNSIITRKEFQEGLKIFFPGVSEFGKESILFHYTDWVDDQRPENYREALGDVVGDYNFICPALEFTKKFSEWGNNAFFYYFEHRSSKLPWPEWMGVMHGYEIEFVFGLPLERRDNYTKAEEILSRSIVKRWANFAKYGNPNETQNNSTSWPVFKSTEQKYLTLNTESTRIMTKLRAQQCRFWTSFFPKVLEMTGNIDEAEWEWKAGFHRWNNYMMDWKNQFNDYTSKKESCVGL
T1 sequence (P56817 whole entry): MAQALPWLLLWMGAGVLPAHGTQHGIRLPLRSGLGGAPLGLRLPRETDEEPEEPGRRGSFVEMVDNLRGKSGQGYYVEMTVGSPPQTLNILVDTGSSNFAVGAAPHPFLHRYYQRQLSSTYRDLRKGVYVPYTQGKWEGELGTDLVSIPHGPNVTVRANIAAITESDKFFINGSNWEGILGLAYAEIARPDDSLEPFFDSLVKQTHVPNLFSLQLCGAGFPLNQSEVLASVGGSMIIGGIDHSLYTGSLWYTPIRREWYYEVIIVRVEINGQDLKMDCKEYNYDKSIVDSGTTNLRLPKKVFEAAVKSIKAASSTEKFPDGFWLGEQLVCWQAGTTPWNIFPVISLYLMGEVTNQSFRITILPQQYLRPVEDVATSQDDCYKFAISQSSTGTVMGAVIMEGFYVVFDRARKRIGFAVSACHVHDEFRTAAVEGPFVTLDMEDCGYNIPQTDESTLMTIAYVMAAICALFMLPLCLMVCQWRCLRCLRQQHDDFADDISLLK
T3 sequence (P22303 whole entry): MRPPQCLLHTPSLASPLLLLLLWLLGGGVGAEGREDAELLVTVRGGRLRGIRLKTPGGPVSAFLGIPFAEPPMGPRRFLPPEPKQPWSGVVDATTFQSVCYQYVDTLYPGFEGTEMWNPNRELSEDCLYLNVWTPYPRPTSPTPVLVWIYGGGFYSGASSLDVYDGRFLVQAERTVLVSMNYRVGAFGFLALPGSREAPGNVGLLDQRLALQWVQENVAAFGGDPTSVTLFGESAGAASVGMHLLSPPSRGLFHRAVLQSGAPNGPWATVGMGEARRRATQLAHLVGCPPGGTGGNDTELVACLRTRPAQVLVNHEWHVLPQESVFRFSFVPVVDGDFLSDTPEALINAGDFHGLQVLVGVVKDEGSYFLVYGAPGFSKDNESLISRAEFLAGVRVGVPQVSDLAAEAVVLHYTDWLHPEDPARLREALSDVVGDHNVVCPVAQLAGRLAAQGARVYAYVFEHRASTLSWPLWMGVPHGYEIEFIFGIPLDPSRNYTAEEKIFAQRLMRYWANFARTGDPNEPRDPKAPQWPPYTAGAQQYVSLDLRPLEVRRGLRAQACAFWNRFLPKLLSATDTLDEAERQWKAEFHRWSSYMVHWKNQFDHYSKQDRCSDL

CC1=C[C@@H]2Cc3nc4cc(Cl)ccc4c(NCCCCCCCNc4c5c(nc6cc(Cl)ccc46)CCCC5)c3[C@H](C1)C2
IC50 (Beta-secretase 1 [1]): 5700 nM
IC50 (Cholinesterase [2]): 86.8 nM
Kic (Acetylcholinesterase [3]): 1.51 nM
IC50 (Acetylcholinesterase [4]): 2.04 nM

CC1=C[C@H]2Cc3nc4cc(Cl)ccc4c(NCCCCCCCNc4c5c(nc6cc(Cl)ccc46)CCCC5)c3[C@@H](C1)C2
IC50 (Beta-secretase 1 [1]): 5900 nM
IC50 (Cholinesterase [2]): 47.4 nM
IC50 (Acetylcholinesterase [4]): 11.5 nM

CC1=C[C@@H]2Cc3nc4cc(Cl)ccc4c(NCCCCCCCNc4c5c(nc6ccccc46)CCCC5)c3[C@H](C1)C2
IC50 (Cholinesterase [2]): 133 nM
IC50 [5]: ≤ 10000 nM
IC50 (Acetylcholinesterase [4]): 1.33 nM

CC1=C[C@H]2Cc3nc4cc(Cl)ccc4c(NCCCCCCCNc4c5c(nc6ccccc46)CCCC5)c3[C@@H](C1)C2
IC50 (Cholinesterase [2]): 139 nM
IC50 [5]: ≤ 10000 nM
IC50 (Acetylcholinesterase [4]): 6.84 nM

CC1=C[C@@H]2Cc3nc4cc(Cl)ccc4c(N)c3[C@H](C1)C2
inhibition (Beta-secretase 1 [6]): 14%

CC1=C[C@H]2Cc3nc4cc(Cl)ccc4c(N)c3[C@@H](C1)C2
inhibition (Beta-secretase 1 [6]): 13.6%

CC1=CC2Cc3nc4cc(Cl)ccc4c(NCCCCCCNc4c5c(nc6ccccc46)CCCC5)c3C(C1)C2.Cl (racemic)
Ratio IC50 (Cholinesterase [7]): 6
IC50 (Cholinesterase [2]): 24.6 nM
IC50 (Acetylcholinesterase [4]): 0.89 nM
Papp at 4 h (in vitro): 10.7 ×10⁻⁶ cm/s

CC1=CC2Cc3nc4cc(Cl)ccc4c(NCCCN(C)CCCNc4c5c(nc6ccccc46)CCCC5)c3C(C1)C2.Cl (racemic)
IC50 (Cholinesterase [2]): 44.2 nM
IC50 (Acetylcholinesterase [4]): 0.42 nM
Papp at 4 h (in vitro): 11.4 ×10⁻⁶ cm/s

CC1=CC2Cc3nc4cc(Cl)ccc4c(NCCCCCCCCNc4c5c(nc6ccccc46)CCCC5)c3C(C1)C2.Cl (racemic)
inhibition in vivo at 10 µmol/kg (Mus musculus): 30%
IC50 (Cholinesterase [2]): 74.2 nM
IC50 (Acetylcholinesterase [8]): 68.7 nM
IC50 [5]: ≤ 10000 nM
IC50 (Acetylcholinesterase [4]): 1.38 nM
Papp at 4 h (in vitro): 10.2 ×10⁻⁶ cm/s
IC50 (Acetylcholinesterase [9]): 61300 nM

CC1=CC2Cc3nc4cc(Cl)ccc4c(NCCCCCCNc4c5c(nc6cc(Cl)ccc46)CCCC5)c3C(C1)C2.Cl (racemic)
IC50 (Cholinesterase [2]): 75.2 nM
IC50 (Acetylcholinesterase [4]): 0.74 nM
Papp at 4 h (in vitro): 12 ×10⁻⁶ cm/s

CC1=CC2Cc3nc4cc(Cl)ccc4c(NCCCN(C)CCCNc4c5c(nc6cc(Cl)ccc46)CCCC5)c3C(C1)C2.Cl (racemic)
IC50 (Cholinesterase [2]): 51.3 nM
IC50 (Acetylcholinesterase [4]): 0.31 nM
Papp at 4 h (in vitro): 7 ×10⁻⁶ cm/s

CC1=CC2Cc3nc4cc(Cl)ccc4c(NCCCCCCCCNc4c5c(nc6cc(Cl)ccc46)CCCC5)c3C(C1)C2.Cl (racemic)
IC50 (Beta-secretase 1 [1]): 4900 nM
inhibition in vivo at 10 µmol/kg (Mus musculus): 28.5%
IC50 (Cholinesterase [2]): 35.1 nM
IC50 (Acetylcholinesterase [8]): 263 nM
IC50 (Acetylcholinesterase [4]): 1.32 nM
Papp at 4 h (in vitro): 21.1 ×10⁻⁶ cm/s

CC1=CC2Cc3nc4cc(Cl)ccc4c(NCCCCCCCNc4c5c(nc6ccccc46)CCCC5)c3C(C1)C2.Cl.Cl.Cl (racemic)
IC50 (Cholinesterase [2]): 87.1 nM
IC50 [5]: ≤ 10000 nM
IC50 (Acetylcholinesterase [4]): 1.89 nM
Papp at 4 h (in vitro): 12.5 ×10⁻⁶ cm/s

CC1=CC2Cc3nc4cc(Cl)ccc4c(NCCCCCCCCCNc4c5c(nc6ccccc46)CCCC5)c3C(C1)C2.Cl.Cl.Cl (racemic)
Papp at 4 h (in vitro): 6 ×10⁻⁶ cm/s

CC1=CC2Cc3nc4cc(Cl)ccc4c(NCCCCCCCCCCNc4c5c(nc6ccccc46)CCCC5)c3C(C1)C2.Cl.Cl.Cl (racemic)
IC50 (Beta-secretase 1 [1]): 7300 nM
Ratio IC50 (Cholinesterase [7]): 6
IC50 (Cholinesterase [2]): 26.6 nM
IC50 (Acetylcholinesterase [4]): 4.19 nM
Papp at 4 h (in vitro): 16.3 ×10⁻⁶ cm/s

CC1=CC2Cc3nc4cc(Cl)ccc4c(NCCCCCCCNc4c5c(nc6cc(Cl)ccc46)CCCC5)c3C(C1)C2.Cl.Cl.Cl.Cl (racemic)
IC50 (Cholinesterase [2]): 73.3 nM
IC50 (Acetylcholinesterase [4]): 4.02 nM
Papp at 4 h (in vitro): 20.9 ×10⁻⁶ cm/s

CC1=CC2Cc3nc4cc(Cl)ccc4c(NCCCCCCCCCNc4c5c(nc6cc(Cl)ccc46)CCCC5)c3C(C1)C2.Cl.Cl.Cl.Cl (racemic)
IC50 (Beta-secretase 1 [1]): 5800 nM
Ratio IC50 (Cholinesterase [7]): 6
IC50 (Cholinesterase [2]): 27.2 nM
IC50 (Acetylcholinesterase [4]): 3.26 nM
Papp at 4 h (in vitro): 15.6 ×10⁻⁶ cm/s

CC1=CC2Cc3nc4cc(Cl)ccc4c(NCCCCCCCCCCNc4c5c(nc6cc(Cl)ccc46)CCCC5)c3C(C1)C2.Cl.Cl.Cl.Cl (racemic)
IC50 (Beta-secretase 1 [1]): 6600 nM
IC50 (Cholinesterase [2]): 76.6 nM
IC50 (Acetylcholinesterase [4]): 9.09 nM
Papp at 4 h (in vitro): 29.1 ×10⁻⁶ cm/s

CC1=CC2Cc3nc4cc(Cl)ccc4c(N)c3C(C1)C2 (racemic)
IC50 (Cholinesterase [2]): 175 nM
